Measurements from ChEMBL document CHEMBL1154133, “Pestalazines and pestalamides, bioactive metabolites from the plant pathogenic fungus Pestalotiopsis theae” (J Nat Prod, 2008).
pEC50, pIC50: −log10 of the molar value. In brackets after ≈: the same amount, converted by molar mass. Where a name gives a salt, the structure may show the parent alone.

Assays:
[1] = tested on: Aspergillus fumigatus; assay: Antifungal activity against Aspergillus fumigatus ATCC 10894 by alamar blue assay; format: functional
[2] = tested on: Human immunodeficiency virus 1; assay: Antiviral activity against HIV1 LAI infected in human C8166 cells assessed as inhibition of viral replication by ELISA; format: functional, organism-based; conditions: Human immunodeficiency virus 1, LAI
[3] = Cytotoxicity against human C8166 cells after 4 days by MTT assay; format: cell-based
[4] = tested on: Aspergillus fumigatus; assay: Antifungal activity against Aspergillus fumigatus ATCC 10894 by microplate reader assay; format: functional, organism-based

Row | SMILES | MIC [1] [µM] | pEC50 [2] | CC50 at 96 h [3] [nM] | pIC50 [4]
1 | OC(Cn1cncn1)(Cn1cncn1)c1ccc(F)cc1F [FLUCONAZOLE] | 163 (≈ 50 µg/mL) | – | – | –
2 | CC(C)(C)NC(=O)[C@@H]1CN(Cc2cccnc2)CCN1C[C@@H](O)C[C@@H](Cc1ccccc1)C(=O)N[C@H]1c2ccccc2C[C@H]1O [INDINAVIR SULFATE] | – | 8.26 | – | –
3 | C[C@@H](CC(=O)NC(=O)c1coc(Cc2ccccc2)cc1=O)C(=O)O [PESTALAMIDE A] | 57.8 (≈ 19.8 µg/mL) | 4.19 | > 100000 | 5.82
